In patent publication US12116364B2, “Heteroaryl compounds and uses thereof” (APRINOIA THERAPEUTICS INC., priority 2018, dated 2024):

Experiments:
[1] = system: tau aggregates (tangles/threads) in temporal cortex sections of an AD brain; assay: Histological examination by fluorescence staining of AD brain sections; assay type: binding, human; conditions: 0.001% (W/V) compound in 50% ethanol, 30 min, relative to PBB3; for Fluorescent binding Tangle: score for tangles; for Fluorescent binding Thread: score for threads
Method: The fluorescence binding assessment was performed as reported previously^1. For fluorescence labeling with PBB3 and test compounds, deparaffinized temporal cortex sections of an AD brain were incubated in 50% ethanol containing 0.001% (W/V) of PBB3 or test compound at room temperature for 30 min. The samples were rinsed with 50% ethanol for 5 min, dipped into distilled water twice for 3 min, and mounted in non-fluorescent mounting media ([…]; Vector Laboratories). Fluorescence images were captured using a DM4000 microscope (Leica) equipped with a custom filter cube for PBB3 (excitation band-pass at 391-437 nm and suppression low-pass with 458 nm cutoff).

[2] = target: [11C]PBB3 binding sites (tau aggregates) in temporal cortex homogenates of an Alzheimer's disease patient (Homo sapiens, UniProt P10636); assay: Fluorescence competitive binding assay in vitro ([11C]PBB3 displacement in Alzheimer's disease temporal cortex homogenates); conditions: 5 nM [11C]PBB3, AD temporal cortex homogenate (100 μg tissue), 30 min, room temperature
[11C]PBB3 binding sites (tau aggregates) in temporal cortex homogenates of an Alzheimer's disease patient, sequence (P10636 623-695 limits assumed): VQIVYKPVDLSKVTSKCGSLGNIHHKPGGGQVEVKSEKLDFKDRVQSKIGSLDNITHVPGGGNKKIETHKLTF
Method: Fluorescence competitive binding assay in vitro was performed as reported previously1. Frozen tissues derived from the temporal cortex of an Alzheimer's disease patient was homogenized in 50 mM Tris-HCl buffer, pH 7.4, containing protease inhibitor cocktail (cOmplete™, EDTA-free; Roche), and stored at −80° C. pending analyses. To assay radioligand binding with homologous or heterologous blockade, these homogenates (100 μg tissue) were incubated with 5 nM [11C]PBB3 (molar radioactivity: 100-150 GBq/μmol) in the absence or presence of unlabeled PBB3 at varying concentrations ranging from 10-11-106 M in Tris-HCl buffer containing 10% ethanol, pH 7.4, for 30 min at room temperature. Non-specific binding of [11C]PBB3 was determined in the presence of 5×10^−7 M PBB3. Samples were run once only and specific radioligand binding was determined as pmol/g tissue. Inhibition constant (Ki) and percentage of displacement were determined by using non-linear regression to fit a concentration-binding plot to one-site and two-site binding models derived from the Cheng-Prusoff equation with GraphPad Prism version 6.0 (GraphPad Software), followed by F-test for model selection. In a one-site homologous blockade model, dissociation constant (Kd) was calculated from homologous competitive binding using this function: Kd=Ki=IC50−Radioligand
where IC50 and [Radioligand] stand for the concentration of the competitor inducing 50% inhibition and radioligand concentration, respectively. Experiments with [^11C]PBB3 and unlabeled PBB3 were performed in a dimly lit condition to avoid photoconversion of the compounds. Table B lists Ki values of exemplary test compounds.

[3] = target: recombinant tau proteins (human Tau, heparin-fiberized) (Homo sapiens, UniProt P10636); assay: Fluorescence quantitative Tau binding assay in vitro; conditions: 0.04 uM fiberized recombinant tau, 30 mM Tris pH 7.5, 1 h, fluorometric saturation curve
recombinant tau proteins (human Tau, heparin-fiberized), sequence (P10636 whole entry): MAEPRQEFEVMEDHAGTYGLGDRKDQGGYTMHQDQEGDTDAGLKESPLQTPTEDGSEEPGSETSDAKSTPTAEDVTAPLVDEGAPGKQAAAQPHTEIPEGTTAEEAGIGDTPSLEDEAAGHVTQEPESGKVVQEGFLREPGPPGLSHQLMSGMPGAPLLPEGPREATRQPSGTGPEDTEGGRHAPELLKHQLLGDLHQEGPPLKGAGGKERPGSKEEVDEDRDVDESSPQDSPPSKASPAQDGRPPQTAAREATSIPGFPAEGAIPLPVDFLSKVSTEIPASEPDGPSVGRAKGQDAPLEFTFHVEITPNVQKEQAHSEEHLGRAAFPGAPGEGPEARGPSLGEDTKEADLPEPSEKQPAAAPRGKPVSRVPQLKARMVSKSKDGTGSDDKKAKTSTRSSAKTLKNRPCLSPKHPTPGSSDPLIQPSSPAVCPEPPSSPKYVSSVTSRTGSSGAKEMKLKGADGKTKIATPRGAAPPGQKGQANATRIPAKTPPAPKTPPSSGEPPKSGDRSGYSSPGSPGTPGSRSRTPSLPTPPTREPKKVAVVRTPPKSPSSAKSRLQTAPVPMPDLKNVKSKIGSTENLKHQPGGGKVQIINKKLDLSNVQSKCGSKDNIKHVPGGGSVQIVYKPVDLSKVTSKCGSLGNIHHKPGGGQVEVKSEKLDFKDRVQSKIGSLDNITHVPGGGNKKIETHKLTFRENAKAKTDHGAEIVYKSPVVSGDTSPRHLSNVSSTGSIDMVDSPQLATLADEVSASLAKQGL
Method: Expression and Purification of Human Tau Protein
• pET41a-Tau wild type • One Shot® BL21(DE3) Chemically Competent E. coli (Invitrogen, C600003) • Kanamycin sulfate (Sangon Biotech, A506636) • IPTG (Sangon Biotech, A100487) • Pipes buffer (100 mM Pipes, pH6.8, 1 mM EGTA, 1 mM MgSO4) • Hepes buffer (25 mM Hepes, pH7.2, 0.1 mM EDTA, 0.5 mM DTT, 100 mM NaCl) • Q-Sepharose Fast Flow column (GE Healthcare, 17-0510-01) • SP-Sepharose Fast Flow column (GE Healthcare, 17-0729-01) Procedures: Protein Expression: • Step 1: Transform 1 uL expression plasmid pET41a-tau wt into one One Shot® BL21(DE3) Chemically Competent E. coli, on ice 30 min. • Step 2: 42° C. heat shock 90 second and on ice 2 min, 37° C. recovery for 30 min, Plate small amount on LB(Kan+) agar plate incubate overnight at 37° C. • Step 3: Pick and resuspend a single colony in 200 mL liquid culture with 50 ug/mL Kanamycin to produce a starter culture. Inoculate starter culture and shake 200 rpm overnight at 37° C. • Step 4: Add 100× dilution Starter into fresh culture medium (Kan+) shake 200 rpm at 37° C. until OD600=0.8. • Step 5: Add IPTG (final conc. 1 mM) and express protein for 3 hr. • Step 6: Collect cell pellet and store at −80° C. for purification. Protein Purification: • Step 1: Cell pellet was resuspended in Pipes buffer. • Step 2: Sonication and centrifugation (15,000 rpm, 15 min at 4° C. • Step 3: The supernatant was placed in a boiling water bath for 20 min and subsequently centrifuged. The heat-stable proteins in the supernatant were loaded onto a Q-Sepharose Fast Flow column (20 mL) • Step 4: The flow through containing tau was loaded onto SP-Sepharose Fast Flow column (10 mL), eluted with Pipes buffer containing 0.2M NaCl. • Step 6: Fractions containing tau were pooled, concentrated and dialyzed against Hepes buffer, stored at −80° C. • Step 7: Reload SP-Flow through into Q-Sepharose Fast Flow column (20 mL) and SP-Sepharose Fast Flow column (10 mL) again, eluted with Pipes buffer containing 0.2M NaCl. • Step 8: Fractions containing tau were pooled, concentrated and dialyzed against Hepes buffer, stored at −80° C. Repeat step 6-7 twice, Collect all above all elution product and concentrated. Biological Assays Fluorescence Quantitative Tau Binding Assay In Vitro
2 uM of recombinant tau proteins and 15 uM of heparin were fiberized in 30 mM Tris (pH 7.5) buffer by overnight incubation at 37° C. 0.04 uM of recombinant tau proteins which was diluted in 30 mM Tris buffer (pH 7.5) was then reacted with test compounds (containing 1% DMSO) for 1 h. Regarding the fluorometric data, the binding saturation curve was created and the parameter estimation method was conducted using Prism software (GraphPad). Kd values were determined for each of test compounds. Table A lists Kd values of exemplary test compounds.

SMILES	Fluorescent binding Tangle [1]	Fluorescent binding Thread [1]	Ki [2] [nM]	Kd [3] [nM]
CNc1ccc(-c2ccc(-c3nc4ccc(NCC(O)CF)cc4s3)nc2)cn1 (centres unmarked) [Compound V, 1-Fluoranyl-3-[[2-[5-[6-(methylamino)pyridin-3-yl]pyridin-2-yl]-1,3-benzothiazol-6-yl]amino]propan-2-ol]	2.5/2.5	2.5/2.5	7.5	3570
CNc1ncc(-c2ccc(-c3nc4ccc(N)cc4s3)c(F)n2)cn1 [Compound Y, 2-[2-Fluoranyl-6-[2-(methylamino)pyrimidin-5-yl]pyridin-3-yl]-1,3-benzothiazol-6-amine]				> 10000
CNc1ccc(-c2cc(F)c(-c3cc4ccncc4[nH]3)cn2)cn1 [Compound R, 4-Fluoro-N-methyl-5-(1H-pyrrolo[2,3-c]pyridin-2-yl)-2,3′-bipyridin-6′-amine]	3/3	3/3	15	1820
CNc1ccc(-c2ccc(-c3cc4ccncc4[nH]3)c(F)n2)cn1 [Compound E, 6-Fluoro-N-methyl-5-(1H-pyrrolo[2,3-c]pyridin-2-yl)-2,3′-bipyridin-6′-amine]	3/3	3/3	5	2700
CNc1ccc(-c2ccc(-c3cc4cnccc4[nH]3)cc2)cn1 [Compound M, 5-(4-(1H-Pyrrolo[3,2-c]pyridin-2-yl)phenyl)-N-methylpyridin-2-amine]	2.5	2	15	2630
CNc1ccc(-c2ccc(-c3cc4cc(F)ncc4[nH]3)cc2)cn1 [Compound B, 5-(4-(5-Fluoro-1H-pyrrolo[2,3-c]pyridin-2-yl)phenyl)-N-methylpyridin-2-amine]	3/3	3/3	2	990
COc1ccc2nc(-c3ccc(-c4ccc(N(C)C)nc4)nc3F)cn2c1 [Compound U, 6-Fluoro-5-(6-methoxyimidazo[1,2-a]pyridin-2-yl)-N,N-dimethyl-2,3′-bipyridin-6′-amine]				1510
CNc1ccc(-c2cnc(-c3cc4ccncc4[nH]3)cc2F)cn1 [Compound T, 5-[4-Fluoranyl-6-(1H-pyrrolo[2,3-c]pyridin-2-yl)pyridin-3-yl]-N-methyl-pyridin-2-amine]	2.5/2.5	2.5/2.5	140	2510
CN(C)c1ccc(-c2ccc(-c3nc4ccncc4n3CCF)cc2)cn1 [Compound K, 5-[4-[3-(2-fluoranylethyl)imidazo[4,5-c]pyridin-2-yl]phenyl]-N,N-dimethyl-pyridin-2-amine]				3500

Stronger by Kd [3], values ahead:

Fluorescent binding Tangle [1]	Fluorescent binding Thread [1]	Ki [2] [nM]	Kd [3] [nM]	SMILES
3/3	3/3	15	940	CNc1ccc(-c2ccc(-c3cc4ccncc4[nH]3)nc2F)cn1 [Compound S, 5-[2-Fluoranyl-6-(1H-pyrrolo[2,3-c]pyridin-2-yl)pyridin-3-yl]-N-methyl-pyridin-2-amine]
			90	Nc1ccc(-c2ccc(-c3nc4ccncc4o3)cc2)cn1 [Compound H, 5-(4-(Oxazolo[5,4-c]pyridin-2-yl)phenyl)pyridin-2-amine]
2/2	2/2	45	500	Nc1cccc(-c2ccc(-c3cc4ccncc4[nH]3)cc2)c1 [Compound A, 3-[4-(1H-Pyrrolo[2,3-c]pyridin-2-yl)phenyl]aniline]
1.5/1.5	1.5/1.5	10	270	CN(C)c1ccc(-c2ccc(-c3cn4cc(OCC(O)CF)ccc4n3)cc2)cn1 (centres unmarked) [Compound O, 1-(2-(4-(6-(Dimethylamino)pyridin-3-yl)phenyl)imidazo[1,2-a]pyridin-6-yloxy)-3-fluoropropan-2-ol]
2.5	1.5	5	540	Nc1ccc(-c2ccc(-c3cc4cnccc4[nH]3)cc2)cc1F [Compound L, 3-Fluoro-4′-(1H-pyrrolo[3,2-c]pyridin-2-yl)biphenyl-4-amine]
1	0	45	370	CNc1ccc(-c2ccc(-c3cn4cc(NCC(O)CF)ccc4n3)cc2)cn1 (centres unmarked) [Compound P, 1-Fluoro-3-(2-(4-(6-(methylamino)pyridin-3-yl)phenyl)imidazo[1,2-a]pyridin-6-ylamino)propan-2-ol]
2	1.5	5	800	Nc1ccc2nc(-c3ccc(-c4ccc(NCCF)nc4)cc3)sc2c1 [Compound I, 2-(4-(6-((2-Fluoroethyl)amino)pyridin-3-yl)phenyl)benzo[d]thiazol-6-amine]
2	0.5	10	280	CN(C)c1ccc(-c2ccc(-c3cc4ccn(CC(O)CF)cc-4n3)cc2)cn1 (centres unmarked) [Compound G, 1-(2-(4-(6-(Dimethylamino)pyridin-3-yl)phenyl)-6H-pyrrolo[2,3-c]pyridin-6-yl)-3-fluoropropan-2-ol]
1	0.5	5	520	COc1ccc2nc(-c3ccc(-c4ccc(N(C)C)nc4F)cc3)cn2c1 [Compound Q, 6-Fluoranyl-5-[4-(6-methoxyimidazo[1,2-a]pyridin-2-yl)phenyl]-N,N-dimethyl-pyridin-2-amine]
			340	COc1ccc(-c2ccc(-c3cc4ccn(CCO)cc-4n3)cc2)cc1 [Compound F, 2-(2-(4′-Methoxybiphenyl-4-yl)-6H-pyrrolo[2,3-c]pyridine-6-yl)ethanol]
			170	CN(C)c1ccc(-c2ccc(-c3nc4ccc(NCC(O)CF)cc4s3)c(F)n2)cn1 (centres unmarked) [Compound X, 1-[[2-[6-[6-(dimethylamino)pyridin-3-yl]-2-fluoranyl-pyridin-3-yl]-1,3-benzothiazol-6-yl]amino]-3-fluoranyl-propan-2-ol]
